# In the supplement of paper PMC10307832:
# Compound: N#CC1(c2ccc(NC(=O)c3cccnc3NCc3ccncc3)cc2)CCCC1 [Apatinib] + O=C(c1cc(Cc2n[nH]c(=O)c3ccccc23)ccc1F)N1CCN(C(=O)C2CC2)CC1 [Olaparib] (partner 8 µM)
# Experiment: relative viability (nuclei count vs DMSO), 5 days (fraction); higher = more cells survive
# Conditions: first compound 8 µM
# Procedure, shortened: (§1)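 Lung cancer cell lines, seeded in 1536-well plates, were treated the following day by pin tool with a single drug or with five library-drug doses (not always all listed) in √10 steps on top of a fixed anchor-drug dose. Cells were fixed and nuclei stained in one step after 5 days, and nuclei were counted. Relative viability is the nuclei count for treated wells divided by that for vehicle wells, reported as medians of duplicate plates.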
row,Cell Line,relative viability
1,NCI-H650,0.334
2,NCI-H661,0.641
3,NCI-H727,0.718
4,NCI-H838,0.696
5,NCI-H1299,0.638
6,NCI-H1355,0.616
7,NCI-H1395,0.395
8,NCI-H1437,0.496
9,NCI-H1648,0.433
10,NCI-H1650,0.696
11,NCI-H1651,0.172
12,NCI-H1666,0.765
13,NCI-H1703,0.138
14,NCI-H1734,0.565
15,NCI-H1755,0.753
16,NCI-H1792,0.216
17,NCI-H1793,0.555

# Compound: N#CC1(c2ccc(NC(=O)c3cccnc3NCc3ccncc3)cc2)CCCC1 [Apatinib] + CC(=O)c1c(C)c2cnc(Nc3ccc(N4CCNCC4)cn3)nc2n(C2CCCC2)c1=O [Palbociclib] (partner 0.5 µM)
# Experiment: as above
# Conditions: first compound 0.08 µM
# Procedure, shortened: as §1
row,Cell Line,relative viability
1,201T,0.366
2,A-427,0.52
3,BEN,0.521
4,CAL-12T,0.448
5,COR-L23,0.321
6,COR-L 105,0.428
7,ChaGo-K-1,0.993
8,EKVX,0.378
9,EMC-BAC-2,0.518
10,EPLC-272H,0.284
11,H3255,0.339
12,HARA,0.291
13,HCC-15,0.792
14,HCC-44,0.999
15,HCC-78,0.48
16,HCC-366,0.484
17,HCC-827,0.444
18,HOP-62,0.441
19,LC-2-ad,0.476
20,LCLC-97TM1,0.238
21,LCLC-103H,0.513
22,LK-2,0.762
23,LOU-NH91,0.549
24,LU99A,0.505

row,Cell Line,relative viability
1,LXF-289,0.594
2,NCI-H23,0.561
3,NCI-H322M,0.464
4,NCI-H358,0.137
5,NCI-H441,0.234
6,NCI-H520,0.227
7,NCI-H522,1.03
8,NCI-H647,0.516
9,NCI-H650,0.316
10,NCI-H661,0.388
11,NCI-H727,0.731
12,NCI-H838,0.229
13,NCI-H1355,0.379
14,NCI-H1395,0.632
15,NCI-H1437,0.314
16,NCI-H1648,0.273
17,NCI-H1650,0.262
18,NCI-H1651,0.516
19,NCI-H1666,0.675
20,NCI-H1734,0.375
21,NCI-H1755,0.462
22,NCI-H1792,0.662
23,NCI-H1793,0.35

# Same assay, conditions: first compound 0.253 µM
row,Cell Line,relative viability
1,201T,0.362
2,A-427,0.534
3,ABC-1,1.02
4,BEN,0.453
5,CAL-12T,0.56
6,COR-L23,0.341
7,COR-L 105,0.397
8,ChaGo-K-1,1.04
9,EKVX,0.482
10,EMC-BAC-2,0.536
11,EPLC-272H,0.341
12,H3255,0.306
13,HARA,0.262
14,HCC-15,0.734
15,HCC-44,0.987
16,HCC-78,0.453
17,HCC-366,0.378
18,HCC-827,0.444
19,HOP-62,0.366
20,LC-2-ad,0.501
21,LCLC-97TM1,0.276
22,LCLC-103H,0.436
23,LK-2,0.481
24,LOU-NH91,0.508

row,Cell Line,relative viability
1,LU99A,0.489
2,LXF-289,0.593
3,NCI-H23,0.57
4,NCI-H322M,0.539
5,NCI-H358,0.133
6,NCI-H441,0.217
7,NCI-H520,0.238
8,NCI-H522,1.18
9,NCI-H647,0.451
10,NCI-H650,0.337
11,NCI-H661,0.405
12,NCI-H838,0.261
13,NCI-H1355,0.394
14,NCI-H1395,0.687
15,NCI-H1437,0.3
16,NCI-H1648,0.218
17,NCI-H1650,0.352
18,NCI-H1651,0.522
19,NCI-H1666,0.638
20,NCI-H1734,0.364
21,NCI-H1755,0.464
22,NCI-H1792,0.651
23,NCI-H1793,0.284

# Same assay, conditions: first compound 0.8 µM
row,Cell Line,relative viability
1,201T,0.354
2,A-427,0.507
3,ABC-1,0.663
4,BEN,0.466
5,CAL-12T,0.465
6,COR-L23,0.278
7,COR-L 105,0.365
8,ChaGo-K-1,0.908
9,EKVX,0.33
10,EMC-BAC-2,0.506
11,EPLC-272H,0.359
12,H3255,0.319
13,HARA,0.303
14,HCC-15,0.677
15,HCC-44,0.894
16,HCC-78,0.476
17,HCC-366,0.373
18,HCC-827,0.402
19,HOP-62,0.377
20,LC-2-ad,0.516
21,LCLC-97TM1,0.193
22,LCLC-103H,0.426
23,LK-2,0.758
24,LOU-NH91,0.526

row,Cell Line,relative viability
1,LU99A,0.383
2,LXF-289,0.567
3,NCI-H23,0.575
4,NCI-H322M,0.499
5,NCI-H358,0.123
6,NCI-H441,0.219
7,NCI-H520,0.25
8,NCI-H522,1.06
9,NCI-H647,0.336
10,NCI-H650,0.372
11,NCI-H661,0.417
12,NCI-H727,0.642
13,NCI-H838,0.206
14,NCI-H1355,0.367
15,NCI-H1395,0.644
16,NCI-H1437,0.277
17,NCI-H1648,0.328
18,NCI-H1650,0.323
19,NCI-H1651,0.489
20,NCI-H1666,0.655
21,NCI-H1734,0.334
22,NCI-H1755,0.434
23,NCI-H1792,0.577
24,NCI-H1793,0.349

# Same assay, conditions: first compound 2.53 µM
row,Cell Line,relative viability
1,201T,0.381
2,A-427,0.518
3,ABC-1,0.531
4,BEN,0.478
5,CAL-12T,0.485
6,COR-L23,0.273
7,COR-L 105,0.365
8,ChaGo-K-1,0.9
9,EKVX,0.375
10,EMC-BAC-2,0.449
11,EPLC-272H,0.336
12,H3255,0.305
13,HARA,0.271
14,HCC-15,0.705
15,HCC-44,0.839
16,HCC-78,0.494
17,HCC-366,0.334
18,HCC-827,0.391
19,HOP-62,0.361
20,LC-2-ad,0.436
21,LCLC-97TM1,0.204
22,LCLC-103H,0.465
23,LK-2,0.484
24,LOU-NH91,0.58

row,Cell Line,relative viability
1,LU99A,0.339
2,LXF-289,0.568
3,NCI-H23,0.409
4,NCI-H322M,0.51
5,NCI-H358,0.124
6,NCI-H441,0.211
7,NCI-H520,0.197
8,NCI-H522,0.928
9,NCI-H647,0.384
10,NCI-H650,0.272
11,NCI-H661,0.417
12,NCI-H727,0.653
13,NCI-H838,0.215
14,NCI-H1355,0.378
15,NCI-H1395,0.585
16,NCI-H1437,0.254
17,NCI-H1648,0.273
18,NCI-H1650,0.299
19,NCI-H1651,0.514
20,NCI-H1666,0.629
21,NCI-H1734,0.318
22,NCI-H1755,0.404
23,NCI-H1792,0.633
24,NCI-H1793,0.264

# Same assay, conditions: first compound 8 µM
row,Cell Line,relative viability
1,201T,0.292
2,A-427,0.453
3,ABC-1,0.583
4,BEN,0.407
5,CAL-12T,0.367
6,COR-L23,0.271
7,COR-L 105,0.42
8,ChaGo-K-1,0.772
9,EKVX,0.378
10,EMC-BAC-2,0.412
11,EPLC-272H,0.313
12,H3255,0.285
13,HARA,0.272
14,HCC-15,0.586
15,HCC-44,0.8
16,HCC-78,0.442
17,HCC-366,0.306
18,HCC-827,0.357
19,HOP-62,0.219
20,LC-2-ad,0.356
21,LCLC-97TM1,0.173
22,LCLC-103H,0.483
23,LK-2,0.356
24,LOU-NH91,0.531

row,Cell Line,relative viability
1,LU99A,0.328
2,LXF-289,0.562
3,NCI-H23,0.424
4,NCI-H322M,0.57
5,NCI-H358,0.123
6,NCI-H441,0.212
7,NCI-H520,0.214
8,NCI-H522,0.903
9,NCI-H647,0.303
10,NCI-H650,0.264
11,NCI-H661,0.356
12,NCI-H727,0.714
13,NCI-H838,0.217
14,NCI-H1355,0.366
15,NCI-H1395,0.602
16,NCI-H1437,0.209
17,NCI-H1648,0.274
18,NCI-H1650,0.303
19,NCI-H1651,0.459
20,NCI-H1666,0.626
21,NCI-H1734,0.312
22,NCI-H1755,0.422
23,NCI-H1792,0.622
24,NCI-H1793,0.27
